The source made the active and inactive calls. The calls are words filed in the database; no cut-off is given here.
Experiments:
[1] = target: Programmed cell death 1 ligand 1 (Homo sapiens, UniProt Q9NZQ7); assay: Inhibition of exosomal PD-L1 (unknown origin) generation preincubated with compound for 24 hrs followed by strep-d2 acceptor bead addition and measured after 30 mins by HTRF assay
MGC-803 [2] = assay: Effect on exosomes generation in human MGC-803 cells at 400 nM measured for 24 hrs; format: functional, cell-based
MGC-803 [3] = assay: Inhibition of exosomal PD-L1 expression in human MGC-803 cells incubated for 24 hrs by Western blot analysis; format: functional, cell-based; conditions: dose <= 400.0 nM
[4] = Half life in Sprague-Dawley rat at 25 mg/kg, po measured upto 24 hrs by LC-MS/MS analysis; format: ADME, organism-based; conditions: in vivo
[5] = Tmax in Sprague-Dawley rat at 25 mg/kg, po measured upto 24 hrs by LC-MS/MS analysis; format: ADME, organism-based; conditions: in vivo
[6] = Cmax in Sprague-Dawley rat at 25 mg/kg, po measured upto 24 hrs by LC-MS/MS analysis; format: ADME, organism-based; conditions: in vivo
[7] = AUC (0 to infinity) in Sprague-Dawley rat at 25 mg/kg, po measured upto 24 hrs by LC-MS/MS analysis; format: ADME, organism-based; conditions: in vivo
[8] = Clearance in Sprague-Dawley rat at 25 mg/kg, po measured upto 24 hrs by LC-MS/MS analysis; format: ADME, organism-based; conditions: in vivo
T-cell = assay: Cytotoxicity against mouse T cell at 100 uM measured for 24 hrs by MTS assay; format: toxicity, cell-based
MGC-803 [9] = assay: Sensitization of human MGC-803 cells to CD8-positive T cell assessed as increase in activated T cells at 400 nM measured for 48 hrs in presence of recombinant PD-1 by MTS assay; format: functional, cell-based
MGC-803 [10] = assay: Sensitization of human MGC-803 cells to CD8-positive T cell assessed as increase in IFN-gamma level by ELISA analysis; format: functional, cell-based; conditions: dose <= 400.0 nM
MGC-803 [11] = assay: Sensitization of human MGC-803 cells to CD8-positive T cell assessed as increase in TNF-alpha level by ELISA analysis; format: functional, cell-based; conditions: dose <= 400.0 nM
MGC-803 [12] = assay: Sensitization of human MGC-803 cells to CD8-positive T cell assessed as increase in IL-2 level by ELISA analysis; format: functional, cell-based; conditions: dose <= 400.0 nM
MGC-803 [13] = assay: Sensitization of human MGC-803 cells to CD8-positive T cell assessed as increase in activated T cells measured for 48 hrs in presence of Nivolumab by MTS assay; format: functional, cell-based
PDC-GC-239 = assay: Sensitization of human poor differentiated gastric cancer PDC-GC-239 cells to CD8-positive T cell assessed as increase in activated T cells measured for 48 hrs by MTS assay; format: functional, cell-based
PDC-GC-919 = assay: Sensitization of human poor differentiated gastric cancer PDC-GC-919 cells to CD8-positive T cell assessed as increase in activated T cells measured for 48 hrs by MTS assay; format: functional, cell-based
MFC [14] = assay: Antiproliferative activity against mouse MFC cells transfected with OVA assessed as inhibition of cell proliferation measured for 48 hrs in presence of anti-mouse PD-1 antibody by MTS assay; format: functional, cell-based
MFC [15] = assay: Antitumor activity against mouse MFC cells implanted in female mouse assessed as tumor growth inhibition at 25 mg/kg, po; conditions: read-out: TGI
MFC [16] = assay: Antitumor activity against mouse MFC cells implanted in female mouse assessed as tumor growth inhibition at 25 mg/kg, po in presence of anti-mouse PD-1; conditions: read-out: TGI
MFC [17] = assay: Antitumor activity against mouse MFC cells implanted in female mouse assessed as reduction in tumor weight at 25 mg/kg, po in presence of anti-mouse PD-1; format: functional, organism-based
[18] = Toxicity in female mouse assessed as effect on body weight at 25 mg/kg, po in presence of anti-mouse PD-1 antibody; format: organism-based; conditions: in vivo
MFC [19] = assay: Antitumor activity against mouse MFC cells transfected with OVA implanted in female mouse assessed as decrease in accumulation of exosomal PD-L1 in tumor at 25 mg/kg, po; format: functional, organism-based
MFC [20] = assay: Antitumor activity against mouse MFC cells transfected with OVA implanted in female mouse assessed as decrease in accumulation of exosomal PD-L1 in tumor at 25 mg/kg, po in presence of anti-PD-1 antibody; format: functional, organism-based
MFC [21] = assay: Antitumor activity against mouse MFC cells transfected with OVA implanted in female mouse assessed as increase in IFN-gamma level in tumor at 25 mg/kg, po in presence of PD-1 antibody by ELISA analysis; format: functional, organism-based
MFC [22] = assay: Antitumor activity against mouse MFC cells transfected with OVA implanted in female mouse assessed as increase in TNF-alpha level in tumor at 25 mg/kg, po in presence of PD-1 antibody by ELISA analysis; format: functional, organism-based
MFC [23] = assay: Antitumor activity against mouse MFC cells transfected with OVA implanted in female mouse assessed as increase in IL-2 level in tumor at 25 mg/kg, po in presence of PD-1 antibody by ELISA analysis; format: functional, organism-based
[24] = Toxicity in female mouse xenografted with mouse MFC cells transfected with OVA assessed as heart damage at 25 mg/kg, po by H and E staining based analysis; format: organism-based; conditions: in vivo
[25] = Toxicity in female mouse xenografted with mouse MFC cells transfected with OVA assessed as liver damage at 25 mg/kg, po by H and E staining based analysis; format: organism-based; conditions: in vivo
[26] = Toxicity in female mouse xenografted with mouse MFC cells transfected with OVA assessed as spleen damage at 25 mg/kg, po by H and E staining based analysis; format: organism-based; conditions: in vivo
[27] = Toxicity in female mouse xenografted with mouse MFC cells transfected with OVA assessed as lung damage at 25 mg/kg, po by H and E staining based analysis; format: organism-based; conditions: in vivo
[28] = Toxicity in female mouse xenografted with mouse MFC cells transfected with OVA assessed as kidney damage at 25 mg/kg, po by H and E staining based analysis; format: organism-based; conditions: in vivo

Programmed cell death 1 ligand 1, sequence (Q9NZQ7 whole entry): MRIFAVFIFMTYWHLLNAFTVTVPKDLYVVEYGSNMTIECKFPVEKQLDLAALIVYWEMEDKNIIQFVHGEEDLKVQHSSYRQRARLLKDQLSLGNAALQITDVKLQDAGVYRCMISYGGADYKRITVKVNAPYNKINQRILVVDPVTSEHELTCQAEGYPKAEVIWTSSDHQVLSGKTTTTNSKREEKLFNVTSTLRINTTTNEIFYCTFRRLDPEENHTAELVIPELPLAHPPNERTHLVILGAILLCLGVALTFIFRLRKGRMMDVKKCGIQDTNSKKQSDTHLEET

Q: For O=C(NCCN1CCOCC1)c1ccc(-c2ccc(F)cc2)cc1, which IC50 [1] is on record?
A: Its IC50 is 2240 nM.

Q: With CC(C)(C)OC(=O)Nc1ccc(-c2ccc(C(=O)NCCN3CCOCC3)cc2)cc1 as the compound, how does the IC50 [1] read?
A: Its IC50 is 681 nM.

Q: For O=C(NCCN1CCOCC1)c1ccc(-c2cc3ccccc3s2)cc1, which IC50 [1] is on record?
A: The IC50 was 648 nM.

Q: With O=C(NCCN1CCOCC1)c1ccc(-c2ccccc2)cc1 as the compound, how does the IC50 [1] read?
A: Its IC50 is 1540 nM.

Q: For Cn1nccc1-c1ccc(C(=O)NCCN2CCOCC2)cc1, which IC50 [1] is on record?
A: Its IC50 is 286 nM.

Q: Which IC50 [1] does the source give for O=C(NCCN1CCOCC1)c1ccc(Cl)cc1 [MOCLOBEMIDE] here?
A: The IC50 was 3860 nM.

Q: Which IC50 [1] does the source give for COc1ccc(-c2ccc(C(=O)NCCN3CCOCC3)cc2)cc1F here?
A: The IC50 was 623 nM.

Q: For Cn1ccc2cc(-c3ccc(C(=O)NCCN4CCOCC4)cc3)ccc21, which IC50 [1] is on record?
A: The IC50 was 217 nM.

Q: For O=C(NCCN1CCOCC1)c1ccc(-c2ccc3cc4ccccc4cc3c2)cc1, which IC50 [1] is on record?
A: The IC50 was over 10000 nM.

Q: With O=C(NCCN1CCOCC1)c1ccc(-c2cncnc2)cc1 as the compound, how does the IC50 [1] read?
A: Its IC50 is 571 nM.

Q: Which IC50 [1] does the source give for COc1ncc(-c2ccc(C(=O)NCCN3CCOCC3)cc2)cn1 here?
A: The IC50 was 461 nM.

Q: Which results are given for O=C(NCCN1CCOCC1)c1ccc(-c2cnc3[nH]ccc3c2)cc1?
A: IC50 [1]: 108 nM; Activity (MGC-803 [2]): Active; inhibition (MGC-803 [3]): Dose-Dependent Effect; half-life [4]: 2.73 h; Tmax [5]: 0.25 h; Cmax [6]: 1210 ng/mL; AUC [7]: 1668.51 ng·h/mL; CL [8]: 587.3 mL/min/kg; Activity (T-cell): Non-Toxic; Activity (MGC-803 [9]): Active; Activity (MGC-803 [10]): Dose-Dependent Effect; Activity (MGC-803 [11]): Dose-Dependent Effect; Activity (MGC-803 [12]): Dose-Dependent Effect; Activity (MGC-803 [13]): Active; Activity (PDC-GC-239): Active; Activity (PDC-GC-919): Active; Activity (MFC [14]): Active; inhibition in vivo at 25 mg/kg (MFC [15]): 32%; inhibition in vivo at 25 mg/kg (MFC [16]): 69%; Activity (MFC [17]): Active; Activity [18]: Non-Toxic; Activity (MFC [19]): Active; Activity (MFC [20]): Active; Activity (MFC [21]): Active; Activity (MFC [22]): Active; Activity (MFC [23]): Active; Activity [24]: Non-Toxic; Activity [25]: Non-Toxic; Activity [26]: Non-Toxic; Activity [27]: Non-Toxic; Activity [28]: Non-Toxic

Q: With O=C(NCCN1CCOCC1)c1ccc(-c2ccc(C(F)(F)F)cc2)cc1 as the compound, how does the IC50 [1] read?
A: Its IC50 is 6820 nM.

Q: For COc1ccc(-c2ccc(C(=O)NCCN3CCOCC3)cc2)cn1, which IC50 [1] is on record?
A: Its IC50 is 669 nM.

Q: For N#Cc1ccc(-c2ccc(C(=O)NCCN3CCOCC3)cc2)cc1, which IC50 [1] is on record?
A: The IC50 was 498 nM.

Q: With CCOC(C)n1cc(-c2ccc(C(=O)NCCN3CCOCC3)cc2)cn1 (centres undefined) as the compound, how does the IC50 [1] read?
A: Its IC50 is 753 nM.

Q: Which IC50 [1] does the source give for Nc1ccc(-c2ccc(C(=O)NCCN3CCOCC3)cc2)cc1 here?
A: The IC50 was 336 nM.

Q: With O=C(NCCN1CCOCC1)c1ccc(-c2ccn(C3CCCCO3)n2)cc1 (centres undefined) as the compound, how does the IC50 [1] read?
A: Its IC50 is 2590 nM.

Q: With O=C(NCCN1CCOCC1)c1ccc(-c2ccc3c(c2)OCCO3)cc1 as the compound, how does the IC50 [1] read?
A: Its IC50 is 153 nM.
